# Test results taken from ChEMBL document CHEMBL5625224, “Identification of [1,2,4]Triazolo[4,3-a]pyrazine PARP1 inhibitors with overcome acquired resistance activities” (Eur J Med Chem, 2023).
# pIC50: −log10 of the molar value. Calls of active or inactive are those of the source. The calls are words filed in the database; no cut-off is given here.
# Experiments:
# [1] = system: Olaparib-resistant CAPAN-1; experiment: Induction of apoptosis in human Olaparib-resistant CAPAN-1 cells assessed as late apoptotic cells at 0.1 uM incubated for 48 hrs by Annexin-V/PI staining based flow cytometry analysis (reference value: 3.67%); assay type: functional
# [2] = system: CAPAN-1; experiment: Induction of cell cycle arrest in human CAPAN-1 cells assessed as accumulation of cell at S phase at 0.5 to 1 uM incubated for 24 hrs by […] staining based flow cytometry analysis; assay type: functional; details: dose 0.5-1 µM
# [3] = system: CAPAN-1; experiment: Induction of apoptosis in human CAPAN-1 cells assessed as early apoptotic cells at 1 uM incubated for 48 hrs by Annexin-V/PI staining based flow cytometry analysis (reference value: 10.1%); assay type: functional
# [4] = system: CAPAN-1; experiment: Induction of apoptosis in human CAPAN-1 cells assessed as early apoptotic cells at 0.5 uM incubated for 48 hrs by Annexin-V/PI staining based flow cytometry analysis (reference value: 10.1%); assay type: functional
# [5] = system: CAPAN-1; experiment: Induction of DNA double strand breaks in human CAPAN-1 cells assessed as gamma-H2AX foci formation at 0.1 to 1 uM incubated for 24 hrs by DAPI staining based confocal microscopic analysis; assay type: functional, cell-based; details: dose 0.1-1 µM
# [6] = Antiproliferative activity against human Talazoparib-resistant CAPAN-1 cells assessed as inhibition of cell growth incubated for 7 days by CCK-8 assay; assay type: functional, cell-based; details: CAPAN-1, 168 h
# [7] = system: CAPAN-1; experiment: Induction of DNA double strand breaks in human CAPAN-1 cells assessed as increase in RPA32 phosphorylation at 0.1 to 1 uM incubated for 24 hrs by Western blot analysis; assay type: functional, cell-based; details: dose 0.1-1 µM
# [8] = molecular target: Poly [ADP-ribose] polymerase 1 (Homo sapiens, UniProt P09874); experiment: Inhibition of PARP1 (unknown origin) incubated for 1 hr by ELISA analysis
# [9] = system: CAPAN-1; experiment: Induction of DNA double strand breaks in human CAPAN-1 cells assessed as increase in p-ATM foci formation at 0.1 to 1 uM incubated for 24 hrs by DAPI staining based confocal microscopic analysis; assay type: functional, cell-based; details: dose 0.1-1 µM
# [10] = system: Olaparib-resistant CAPAN-1; experiment: Induction of apoptosis in human Olaparib-resistant CAPAN-1 cells assessed as early apoptotic cells at 0.1 uM incubated for 48 hrs by Annexin-V/PI staining based flow cytometry analysis (reference value: 8.50%); assay type: functional
# [11] = system: Olaparib-resistant CAPAN-1; experiment: Induction of DNA double strand breaks in human Olaparib-resistant CAPAN-1 cells assessed as gamma-H2AX foci formation at 0.1 to 1 uM incubated for 24 hrs by DAPI staining based confocal microscopic analysis; assay type: functional, cell-based; details: dose 0.1-1 µM
# [12] = molecular target: Voltage-gated inwardly rectifying potassium channel KCNH2 (Homo sapiens, UniProt Q12809); experiment: Inhibition of hERG; assay type: toxicity
# [13] = system: Olaparib-resistant CAPAN-1; experiment: Induction of DNA double strand breaks in Olaparib-resistant human CAPAN-1 cells assessed as increase in p-ATM foci formation at 0.1 to 1 uM incubated for 24 hrs by DAPI staining based confocal microscopic analysis; assay type: functional, cell-based; details: dose 0.1-1 µM
# [14] = Antiproliferative activity against human Simmiparib-resistant CAPAN-1 cells assessed as inhibition of cell growth incubated for 7 days by CCK-8 assay; assay type: functional, cell-based; details: CAPAN-1, 168 h
# [15] = system: CAPAN-1; experiment: Induction of DNA double strand breaks in human CAPAN-1 cells assessed as increase in Chk1 phosphorylation at 0.1 to 1 uM incubated for 24 hrs by Western blot analysis; assay type: functional, cell-based; details: dose 0.1-1 µM
# [16] = system: CAPAN-1; experiment: Induction of DNA double strand breaks in human CAPAN-1 cells assessed as effect on RPA32 phosphorylation at 0.1 to 1 uM incubated for 24 hrs by DAPI staining based confocal microscopic analysis; assay type: functional, cell-based; details: dose 0.1-1 µM
# [17] = system: Olaparib-resistant CAPAN-1; experiment: Induction of cell cycle arrest in human Olaparib-resistant CAPAN-1 cells assessed as accumulation of cell at S phase at 0.5 to 1 uM incubated for 24 hrs by […] staining based flow cytometry analysis; assay type: functional; details: dose 0.5-1 µM
# [18] = system: Olaparib-resistant CAPAN-1; experiment: Induction of DNA double strand breaks in human Olaparib-resistant CAPAN-1 cells assessed as effect on RPA32 phosphorylation at 0.1 to 1 uM incubated for 24 hrs by DAPI staining based confocal microscopic analysis; assay type: functional, cell-based; details: dose 0.1-1 µM
# [19] = system: Olaparib-resistant CAPAN-1; experiment: Induction of apoptosis in human Olaparib-resistant CAPAN-1 cells assessed as early apoptotic cells at 1 uM incubated for 48 hrs by Annexin-V/PI staining based flow cytometry analysis (reference value: 8.50%); assay type: functional
# [20] = system: Olaparib-resistant CAPAN-1; experiment: Induction of apoptosis in human Olaparib-resistant CAPAN-1 cells assessed as late apoptotic cells at 0.5 uM incubated for 48 hrs by Annexin-V/PI staining based flow cytometry analysis (reference value: 3.67%); assay type: functional
# [21] = system: CAPAN-1; experiment: Induction of apoptosis in human CAPAN-1 cells assessed as late apoptotic cells at 1 uM incubated for 48 hrs by Annexin-V/PI staining based flow cytometry analysis (reference value: 4.95%); assay type: functional
# [22] = system: MDA-MB-436; experiment: Antiproliferative activity against human MDA-MB-436 BRCA1-/- cells assessed as inhibition of cell growth incubated for 7 days by CCK-8 assay; assay type: functional, cell-based; details: MDA-MB-436, 168 h
# [23] = system: Olaparib-resistant CAPAN-1; experiment: Antiproliferative activity against human Olaparib-resistant CAPAN-1 cells assessed as inhibition of cell growth incubated for 7 days by CCK-8 assay; assay type: functional, cell-based; details: Olaparib-resistant CAPAN-1, 168 h
# [24] = system: CAPAN-1; experiment: Induction of cell cycle arrest in human CAPAN-1 cells assessed as accumulation of cell at G2/M phase at 0.1 uM incubated for 24 hrs by […] staining based flow cytometry analysis; assay type: functional
# [25] = system: CAPAN-1; experiment: Induction of apoptosis in human CAPAN-1 cells assessed as early apoptotic cells at 0.1 uM incubated for 48 hrs by Annexin-V/PI staining based flow cytometry analysis (reference value: 10.1%); assay type: functional
# [26] = system: CAPAN-1; experiment: Induction of DNA double strand breaks in human CAPAN-1 cells assessed as increase in gamma-H2AX level at 0.1 to 1 uM incubated for 24 hrs by Western blot analysis; assay type: functional, cell-based; details: dose 0.1-1 µM
# [27] = system: Olaparib-resistant CAPAN-1; experiment: Induction of apoptosis in human Olaparib-resistant CAPAN-1 cells assessed as early apoptotic cells at 0.5 uM incubated for 48 hrs by Annexin-V/PI staining based flow cytometry analysis (reference value: 8.50%); assay type: functional
# [28] = system: CAPAN-1; experiment: Induction of apoptosis in human CAPAN-1 cells assessed as late apoptotic cells at 0.1 uM incubated for 48 hrs by Annexin-V/PI staining based flow cytometry analysis (reference value: 4.95%); assay type: functional
# [29] = system: Olaparib-resistant CAPAN-1; experiment: Induction of apoptosis in human Olaparib-resistant CAPAN-1 cells assessed as late apoptotic cells at 1 uM incubated for 48 hrs by Annexin-V/PI staining based flow cytometry analysis (reference value: 3.67%); assay type: functional
# [30] = system: CAPAN-1; experiment: Induction of apoptosis in human CAPAN-1 cells assessed as late apoptotic cells at 0.5 uM incubated for 48 hrs by Annexin-V/PI staining based flow cytometry analysis (reference value: 4.95%); assay type: functional
# [31] = system: CAPAN-1; experiment: Antiproliferative activity against human CAPAN-1 BRCA2-/- cells assessed as inhibition of cell growth incubated for 7 days by CCK-8 assay; assay type: functional, cell-based; details: CAPAN-1, 168 h
# Chain of Poly [ADP-ribose] polymerase 1 (P09874 whole entry): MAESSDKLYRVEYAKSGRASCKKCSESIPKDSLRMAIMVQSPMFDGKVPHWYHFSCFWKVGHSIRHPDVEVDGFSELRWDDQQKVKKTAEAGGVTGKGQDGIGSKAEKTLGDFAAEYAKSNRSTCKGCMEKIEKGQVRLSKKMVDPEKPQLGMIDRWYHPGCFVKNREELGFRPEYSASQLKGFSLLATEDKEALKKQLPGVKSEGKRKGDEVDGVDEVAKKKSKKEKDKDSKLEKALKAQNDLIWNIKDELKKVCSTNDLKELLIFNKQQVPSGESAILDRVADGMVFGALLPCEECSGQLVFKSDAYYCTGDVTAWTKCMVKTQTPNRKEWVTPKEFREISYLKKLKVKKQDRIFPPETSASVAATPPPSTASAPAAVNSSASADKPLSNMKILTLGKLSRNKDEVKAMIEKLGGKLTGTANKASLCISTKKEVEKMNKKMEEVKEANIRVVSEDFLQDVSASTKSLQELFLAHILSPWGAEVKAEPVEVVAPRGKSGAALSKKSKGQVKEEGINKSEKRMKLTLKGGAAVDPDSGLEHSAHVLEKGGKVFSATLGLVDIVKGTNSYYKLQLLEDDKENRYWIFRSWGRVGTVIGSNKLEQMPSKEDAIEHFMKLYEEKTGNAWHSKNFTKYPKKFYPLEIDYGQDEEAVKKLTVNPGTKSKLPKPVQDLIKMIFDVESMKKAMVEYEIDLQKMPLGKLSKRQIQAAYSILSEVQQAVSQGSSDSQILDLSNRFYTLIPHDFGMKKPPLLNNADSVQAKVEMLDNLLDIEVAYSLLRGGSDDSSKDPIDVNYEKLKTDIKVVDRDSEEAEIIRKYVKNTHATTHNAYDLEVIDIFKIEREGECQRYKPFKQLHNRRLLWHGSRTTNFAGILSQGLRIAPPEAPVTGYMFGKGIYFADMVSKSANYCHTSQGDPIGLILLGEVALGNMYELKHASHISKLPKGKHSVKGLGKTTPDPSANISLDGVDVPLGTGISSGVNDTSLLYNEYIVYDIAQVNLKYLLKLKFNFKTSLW
# Chain of Voltage-gated inwardly rectifying potassium channel KCNH2 (Q12809 whole entry): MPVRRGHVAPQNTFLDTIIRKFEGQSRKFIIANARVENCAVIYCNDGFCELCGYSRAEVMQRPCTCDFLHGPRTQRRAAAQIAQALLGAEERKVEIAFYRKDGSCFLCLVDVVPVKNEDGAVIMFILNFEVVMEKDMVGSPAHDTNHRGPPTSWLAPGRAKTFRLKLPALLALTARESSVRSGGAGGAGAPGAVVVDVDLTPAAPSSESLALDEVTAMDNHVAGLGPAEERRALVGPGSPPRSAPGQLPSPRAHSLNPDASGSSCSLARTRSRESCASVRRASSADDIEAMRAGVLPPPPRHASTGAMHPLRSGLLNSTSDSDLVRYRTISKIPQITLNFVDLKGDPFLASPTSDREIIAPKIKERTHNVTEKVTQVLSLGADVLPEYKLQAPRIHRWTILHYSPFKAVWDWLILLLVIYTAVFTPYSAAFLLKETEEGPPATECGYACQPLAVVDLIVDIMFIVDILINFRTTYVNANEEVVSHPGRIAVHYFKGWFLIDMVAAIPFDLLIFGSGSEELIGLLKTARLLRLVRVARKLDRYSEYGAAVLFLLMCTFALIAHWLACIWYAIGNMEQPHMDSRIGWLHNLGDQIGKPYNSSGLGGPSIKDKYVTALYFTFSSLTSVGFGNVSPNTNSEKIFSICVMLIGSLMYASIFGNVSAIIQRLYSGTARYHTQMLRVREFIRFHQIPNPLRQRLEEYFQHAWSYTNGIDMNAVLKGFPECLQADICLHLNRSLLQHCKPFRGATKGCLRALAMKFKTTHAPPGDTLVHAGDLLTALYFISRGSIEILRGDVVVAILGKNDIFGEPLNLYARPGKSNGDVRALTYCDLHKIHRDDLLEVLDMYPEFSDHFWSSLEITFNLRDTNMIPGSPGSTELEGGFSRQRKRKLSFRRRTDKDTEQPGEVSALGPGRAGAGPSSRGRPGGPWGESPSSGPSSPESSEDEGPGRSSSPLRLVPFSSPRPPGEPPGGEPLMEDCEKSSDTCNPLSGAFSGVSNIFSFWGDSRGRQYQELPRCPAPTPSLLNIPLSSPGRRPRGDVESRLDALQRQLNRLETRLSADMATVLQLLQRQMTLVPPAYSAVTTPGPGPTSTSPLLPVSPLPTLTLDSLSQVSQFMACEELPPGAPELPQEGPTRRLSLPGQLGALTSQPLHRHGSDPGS
structure (smiles),measurement,setting,value
COc1cccc(-c2nnc3n2C(C)CN(C(=O)c2cc(Cc4n[nH]c(=O)c5ccccc45)ccc2F)C3)n1 (stereo unspecified),Activity,[1],4.6%
same,Activity,[2],Active
same,Activity,[3],41%
same,Activity,[4],40.7%
same,Activity,[5],Active
same,pIC50,[6],> 9.52
same,Activity,[7],Active
same,pIC50,[8],9.22
same,Activity,[9],Active
same,Activity,[10],17.6%
same,Activity,[11],Active
same,pIC50,[12],4.76
same,Activity,[13],Active
same,pIC50,[14],9.52
same,Activity,[15],Active
same,Activity,[16],Active
same,Activity,[17],Active
same,Activity,[18],Active
same,Activity,[19],36.6%
same,Activity,[20],29%
same,Activity,[21],43.9%
same,pIC50,[22],> 9.52
same,pIC50,[23],9.52
same,Activity,[24],Active
same,Activity,[25],37.9%
same,Activity,[26],Active
same,Activity,[27],39.1%
same,Activity,[28],17.7%
same,Activity,[29],30.7%
same,Activity,[30],42%
same,pIC50,[31],> 9.52
